pEC50, pKi: −log10 of the molar value.
Key:
MC3 receptor (MC3R) = target: T1, MC3 receptor (MC3R) (Homo sapiens, UniProt P41968); assay: Nle4, D-Phe7-α-MSH inhibition at the MC3 receptor (competition binding, SPA, CHO-CRE MC3R membranes)
T1 construct: expressed in transfected cells; host or cells: CHO-CRE MC3R cells (membranes)
Source text: Nle4, D-Phe7-α-MSH Inhibition at the MC3 Receptor
(§1) Nle4, D-Phe7-α-MSH is a stable analogue of melanocyte-stimulating hormone (MSH), which is an agonist at the MC3 receptor (MC3R). Compounds can be evaluated for their ability to inhibit Nle4, D-Phe7-α-MSH binding to membranes from cells expressing the MC3R using a competition binding assay versus [^125I] Nle4, D-Phe7-α-MSH.
(§2) Cells expressing the MC3R were subject to homogenisation and the membrane fragment isolated by differential centrifugation. CHO-CRE MC3R cell membranes were coupled to PVT-PEI-WGA SPA Beads type A for 2 hours, spun at 1000 RPM for 5 mins and suspended to a final assay concentration of 800 ug bead/ml (1.2 ug membrane, 40 ug bead per well). Bead/membrane mix was incubated with 0.06 nM [^125I] Nle4, D-Phe7-α-MSH and 11 half-log concentrations of competitor ligand, in duplicate, in a total volume of 50 μl buffer per well (25 mM HEPES, 1 mM MgCl2, 2.5 mM CaCl2, 1% Pluronic F68, 1 complete EDTA protease inhibitor tablet/50 ml pH7). Non-specific binding was determined by the inclusion of 100 nM SHU9119. The reaction was initiated by the addition of bead/membranes and plates were incubated at room temperature for 12 hours (the first hour on a plate shaker), after which the amount of radioactivity present was determined using a Wallac plate counter. Ki values were determined by data analysis using appropriate software.

MC4 receptor (MC4R) = target: T2, MC4 receptor (MC4R) (Homo sapiens, UniProt P32245); assay: Nle4, D-Phe7-α-MSH inhibition at the MC4 receptor (competition binding, SPA, CHO-CRE MC4R membranes)
T2 construct: expressed in transfected cells; host or cells: CHO-CRE MC4R cells (membranes)
Source text: Nle4, D-Phe7-α-MSH Inhibition at the MC4 Receptor
as §1, with “MC4” for “MC3”, “(MC4R).” for “(MC3R).”, “MC4R” for “MC3R”
as §2, with “MC4R” for “MC3R”, “min” for “mins”, “a” for “a final assay”, “300” for “800”, “(0.15” for “(1.2”, “15” for “40”

[1] = In vitro metabolism rate determination, human liver microsome (HLM) assay; type: in vitro ADME; conditions: human, liver microsomes, read-out: HLM: Clint, app
How it was run: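 Human liver microsomes at 0.5 nmol cytochrome P450/ml with 1 μM substrate, pre-warmed 5 min at 37° C, reaction started with NADP; samples taken 0–60 min and terminated. Substrate loss measured; first-order rate constant from log-linear regression converted to half-life or Clint (μl/min/mg protein).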

CYP3A4 = target: T3, CYP3A4 (Homo sapiens, UniProt P08684); assay: High density DDI 3 μM cocktail screen in human liver microsomes, midazolam probe; type: in vitro ADME; conditions: human, liver microsomes, probe midazolam, read-out: % inhibition 3A4 @ 3 μM
T3 construct: utilizes human liver microsomes together with isoform-specific clinical drug probes; from tissue; host or cells: human liver microsomes
How it was run: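 Pooled human liver microsomes incubated with isoform-specific clinical probe substrates as a cocktail (midazolam for CYP3A4), with or without test compound at 3 μM. Metabolite formation followed over time by LC-MS/MS. Inhibition expressed as a single-point percentage.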

MC4 receptor = MC4 receptor (Homo sapiens, UniProt P32245); assay: MC4 EC50 functional potency (protocol E of US2005/0176772 / WO 2005/077935); type: cell-based
Experimental: The compounds of formula (I) of the present invention have utility as MCR4 agonists in the treatment of various disease states.
MC5 and MC4 EC50 activity was determined as described by assay protocols D and E, respectively, in US2005/0176772 (pages 28-30).

T2 sequence (P32245 whole entry): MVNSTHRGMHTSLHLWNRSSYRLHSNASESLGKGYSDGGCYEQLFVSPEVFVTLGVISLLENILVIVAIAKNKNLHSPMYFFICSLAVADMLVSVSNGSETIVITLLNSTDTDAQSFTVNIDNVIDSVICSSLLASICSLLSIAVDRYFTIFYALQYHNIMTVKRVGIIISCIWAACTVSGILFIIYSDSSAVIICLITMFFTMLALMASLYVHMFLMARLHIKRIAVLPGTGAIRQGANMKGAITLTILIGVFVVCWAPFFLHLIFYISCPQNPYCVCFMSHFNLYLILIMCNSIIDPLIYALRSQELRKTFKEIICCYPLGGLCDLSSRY
MC4 receptor, sequence (P32245 whole entry): as above
T3 sequence (P08684 whole entry, canonical isoform): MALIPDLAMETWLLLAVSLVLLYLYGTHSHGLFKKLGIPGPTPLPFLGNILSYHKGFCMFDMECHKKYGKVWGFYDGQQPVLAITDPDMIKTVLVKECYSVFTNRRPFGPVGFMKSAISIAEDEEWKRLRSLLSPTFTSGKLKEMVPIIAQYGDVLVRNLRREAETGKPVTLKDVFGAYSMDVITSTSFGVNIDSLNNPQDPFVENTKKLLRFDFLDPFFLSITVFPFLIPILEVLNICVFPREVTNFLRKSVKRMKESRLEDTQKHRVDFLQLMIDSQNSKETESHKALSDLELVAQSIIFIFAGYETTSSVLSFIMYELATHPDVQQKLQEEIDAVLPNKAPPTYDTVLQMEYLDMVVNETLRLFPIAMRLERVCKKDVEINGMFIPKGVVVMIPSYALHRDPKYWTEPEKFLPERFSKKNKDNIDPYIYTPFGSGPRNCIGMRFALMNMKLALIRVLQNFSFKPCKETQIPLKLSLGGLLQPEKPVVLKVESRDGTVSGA
T1 sequence (P41968 whole entry): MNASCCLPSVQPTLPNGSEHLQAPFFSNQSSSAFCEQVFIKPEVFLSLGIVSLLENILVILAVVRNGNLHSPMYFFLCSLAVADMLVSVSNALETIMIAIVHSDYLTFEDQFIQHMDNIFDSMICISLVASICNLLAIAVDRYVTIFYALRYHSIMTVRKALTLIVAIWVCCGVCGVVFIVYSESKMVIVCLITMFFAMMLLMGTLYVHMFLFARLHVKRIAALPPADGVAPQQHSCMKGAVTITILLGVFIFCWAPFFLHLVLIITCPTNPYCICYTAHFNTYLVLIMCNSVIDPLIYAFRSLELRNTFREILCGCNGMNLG

## COc1ccc([C@@H]2CN(c3ccc(=O)n(C)n3)C[C@H]2C(=O)N2CCCC(c3ccc(Cl)cc3)N(S(C)(=O)=O)CC2)c(F)c1 (mixture of isomers) [Example 115, 6-[(3S,4R)-3-{[5-(4-chlorophenyl)-4-(methylsulfonyl)-1,4-diazocan-1-yl]carbonyl}-4-(2-fluoro-4-methoxyphenyl)pyrrolidin-1-yl]-2-methylpyridazin-3(2H)-one]
MC3 receptor (MC3R)
  pKi: 5.96
MC4 receptor (MC4R)
  pKi: 7.27
[1]
  microsomal CLint at 1 μM: 22.7 µL/min/mg
CYP3A4
  inhibition at 3 µM: 58.2%
MC4 receptor
  pEC50: 7.80

## CC(=O)N1CCN(C(=O)[C@@H]2CN(C(C)(C)C)C[C@H]2c2ccc(F)cc2F)CCC[C@H]1c1ccc(Cl)cc1 [Example 8]
MC3 receptor (MC3R)
  pKi: 4.94
MC4 receptor (MC4R)
  pKi: 6.00
[1]
  microsomal CLint at 1 μM: 17 µL/min/mg
CYP3A4
  inhibition at 3 µM: 23.9%
MC4 receptor
  pEC50: 7.28

## CS(=O)(=O)N1CCN(C(=O)[C@@H]2CN(c3ccc(C#N)nn3)C[C@H]2c2ccc(Cl)cn2)CCC[C@H]1c1ccc(Cl)cc1 [Example 102]
MC3 receptor (MC3R)
  pKi: 6.26
MC4 receptor (MC4R)
  pKi: 6.76
[1]
  microsomal CLint at 1 μM: 16 µL/min/mg
CYP3A4
  inhibition at 3 µM: 65%
MC4 receptor
  pEC50: 7.92

## CCCC(=O)N1CCN(C(=O)[C@@H]2CN(C(C)(C)C)C[C@H]2c2ccc(F)cc2F)CCC[C@H]1c1ccc(Cl)cc1 [Example 13]
MC3 receptor (MC3R)
  pKi: 5.30
MC4 receptor (MC4R)
  pKi: 6.44
[1]
  microsomal CLint at 1 μM: 37.8 µL/min/mg
CYP3A4
  inhibition at 3 µM: 48.8%
MC4 receptor
  pEC50: 7.86

## COC(=O)N1CCN(C(=O)[C@@H]2CN(c3ccc(=O)n(C)n3)C[C@H]2c2ccc(OC)cc2F)CCCC1c1ccc(Cl)cc1 (mixture of isomers) [Example 116]
MC3 receptor (MC3R)
  pKi: 6.24
MC4 receptor (MC4R)
  pKi: 7.61
[1]
  microsomal CLint at 1 μM: 12 µL/min/mg
CYP3A4
  inhibition at 3 µM: 75%
MC4 receptor
  pEC50: 8.44

## COC(=O)N1CCN(C(=O)[C@@H]2CN(C(C)(C)C)C[C@H]2c2ccc(F)cc2F)CCCC1c1ccccc1 (mixture of isomers) [Example 82]
MC3 receptor (MC3R)
  pKi: 4.71
MC4 receptor (MC4R)
  pKi: 5.29
[1]
  microsomal CLint at 1 μM: 66 µL/min/mg
CYP3A4
  inhibition at 3 µM: 47%
MC4 receptor
  pEC50: 7.22

## CC(=O)N1CCN(C(=O)[C@@H]2CN(c3ccc(C#N)nn3)C[C@H]2c2ccc(F)cc2F)CCCC1c1ccccc1F (mixture of isomers) [Example 2]
MC3 receptor (MC3R)
  pKi: 6.43
MC4 receptor (MC4R)
  pKi: 6.57
[1]
  microsomal CLint at 1 μM: 39 µL/min/mg
CYP3A4
  inhibition at 3 µM: 60%
MC4 receptor
  pEC50: 7.72

## CN(C)C(=O)N1CCN(C(=O)[C@@H]2CN(c3ccc(C#N)nn3)C[C@H]2c2ccc(Cl)cn2)CCC[C@H]1c1ccc(Cl)cc1 [Example 45]
MC3 receptor (MC3R)
  pKi: 7.00
MC4 receptor (MC4R)
  pKi: 6.92
[1]
  microsomal CLint at 1 μM: 234 µL/min/mg
CYP3A4
  inhibition at 3 µM: 75.8%
MC4 receptor
  pEC50: 7.97

## CC(C)CC(=O)N1CCN(C(=O)[C@@H]2CN(C(C)(C)C)C[C@H]2c2ccc(F)cc2F)CCC[C@H]1c1ccc(Cl)cc1 [Example 16]
MC3 receptor (MC3R)
  pKi: 5.68
MC4 receptor (MC4R)
  pKi: 6.42
[1]
  microsomal CLint at 1 μM: 92.6 µL/min/mg
CYP3A4
  inhibition at 3 µM: 55.5%
MC4 receptor
  pEC50: 7.73

## COC(=O)N1CCN(C(=O)[C@@H]2CN(C(C)(C)C)C[C@H]2c2ccc(OC)cc2F)CCC[C@H]1c1ccc(Cl)cc1 [Example 71]
MC3 receptor (MC3R)
  pKi: 4.99
MC4 receptor (MC4R)
  pKi: 5.98
[1]
  microsomal CLint at 1 μM: 43.4 µL/min/mg
CYP3A4
  inhibition at 3 µM: 49.5%
MC4 receptor
  pEC50: 7.26

## COc1ccc([C@@H]2CN(c3ccc(Cl)nn3)C[C@H]2C(=O)N2CCCC(c3ccc(Cl)cc3)N(S(C)(=O)=O)CC2)c(F)c1 (stereo partly drawn) [Example 108, [5-(4-chlorophenyl)-4-(methylsulfonyl)-1,4-diazocan-1-yl]-[(3S,4R)-1-(6-chloro-pyridazine-3-yl)-4-(2-fluoro-4-methoxyphenyl)-pyrrolidin-3-yl]-methanone]
MC3 receptor (MC3R)
  pKi: 6.06
MC4 receptor (MC4R)
  pKi: 6.74
[1]
  microsomal CLint at 1 μM: 59 µL/min/mg
CYP3A4
  inhibition at 3 µM: 63.5%
MC4 receptor
  pEC50: 6.91

## COC(=O)N1CCN(C(=O)[C@@H]2CN(c3ccc(=O)[nH]n3)C[C@H]2c2ccc(OC)cc2F)CCC[C@H]1c1ccc(Cl)cc1 [Example 69, methyl 8S-(4-chlorophenyl)-4-{[(3S,4R)-4-(2-fluoro-4-methoxyphenyl)-1-(6-oxo-1,6-dihydropyridazin-3-yl)pyrrolidin-3-yl]carbonyl}-1,4-diazocane-1-carboxylate]
MC3 receptor (MC3R)
  pKi: 6.00
MC4 receptor (MC4R)
  pKi: 7.79
[1]
  microsomal CLint at 1 μM: 8 µL/min/mg
CYP3A4
  inhibition at 3 µM: 53%
MC4 receptor
  pEC50: 8.12

## COc1ccc(C2CCCN(C(=O)[C@@H]3CN(c4ccc(C#N)nn4)C[C@H]3c3ccc(F)cc3F)CCN2C(C)=O)cc1 (mixture of isomers) [Example 1, 6-[(3S,4R)-3-{[4-acetyl-5-(4-methoxyphenyl)-1,4-diazocan-1-yl]carbonyl}-4-(2,4-difluorophenyl)pyrrolidin-1-yl]pyridazine-3-carbonitrile]
MC3 receptor (MC3R)
  pKi: 5.53
MC4 receptor (MC4R)
  pKi: 5.68
[1]
  microsomal CLint at 1 μM: 31 µL/min/mg
CYP3A4
  inhibition at 3 µM: 63%
MC4 receptor
  pEC50: 6.80

## COc1cccc(C2CCCN(C(=O)[C@@H]3CN(c4ccc(C#N)nn4)C[C@H]3c3ccc(F)cc3F)CCN2C(C)=O)c1 (mixture of isomers) [Example 4]
MC3 receptor (MC3R)
  pKi: 6.09
MC4 receptor (MC4R)
  pKi: 6.26
[1]
  microsomal CLint at 1 μM: 237 µL/min/mg
CYP3A4
  inhibition at 3 µM: 36.5%
MC4 receptor
  pEC50: 6.84

## COC(=O)N1CCN(C(=O)[C@@H]2CN(C(C)(C)C)C[C@H]2c2ccc(F)cc2F)CCCC1c1ccc(Cl)cc1 (mixture of isomers) [Example 83]
MC3 receptor (MC3R)
  pKi: 5.09
MC4 receptor (MC4R)
  pKi: 5.77
[1]
  microsomal CLint at 1 μM: 23 µL/min/mg
CYP3A4
  inhibition at 3 µM: 29%
MC4 receptor
  pEC50: 7.49

## COc1ccc([C@@H]2CN(c3ccc(=O)[nH]n3)C[C@H]2C(=O)N2CCCC(c3ccc(Cl)cc3)N(S(C)(=O)=O)CC2)c(F)c1 (single isomer, unassigned) [Example 113]
MC3 receptor (MC3R)
  pKi: 5.89
MC4 receptor (MC4R)
  pKi: 7.30
[1]
  microsomal CLint at 1 μM: 24.8 µL/min/mg
CYP3A4
  inhibition at 3 µM: 44.3%
MC4 receptor
  pEC50: 7.90

## CC(=O)N1CCN(C(=O)[C@@H]2CN(c3cccnn3)C[C@H]2c2ccc(F)cc2F)CCC1c1ccccc1 (mixture of isomers) [Example 3]
MC3 receptor (MC3R)
  pKi: 5.50
MC4 receptor (MC4R)
  pKi: 6.28
[1]
  microsomal CLint at 1 μM: 60 µL/min/mg
CYP3A4
  inhibition at 3 µM: 30%
MC4 receptor
  pEC50: 7.37

## COC(=O)N1CCN(C(=O)[C@@H]2CN(c3ccc(C#N)nn3)C[C@H]2c2ccc(F)cc2F)CCCC1c1ccc(Cl)cc1 (mixture of isomers) [Example 75]
MC3 receptor (MC3R)
  pKi: 6.34
MC4 receptor (MC4R)
  pKi: 7.07
[1]
  microsomal CLint at 1 μM: 8 µL/min/mg
CYP3A4
  inhibition at 3 µM: 73.5%
MC4 receptor
  pEC50: 7.97

## COC(=O)N1CCN(C(=O)[C@@H]2CN(C3CCOCC3)C[C@H]2c2ccc(F)cc2F)CCCC1c1ccccc1 (mixture of isomers) [Example 74]
MC3 receptor (MC3R)
  pKi: 4.71
MC4 receptor (MC4R)
  pKi: 5.86
[1]
  microsomal CLint at 1 μM: 74 µL/min/mg
CYP3A4
  inhibition at 3 µM: 56%
MC4 receptor
  pEC50: 7.06

## COc1ccc([C@@H]2CN(C(C)(C)C)C[C@H]2C(=O)N2CCCC(c3ccc(Cl)cc3)N(S(C)(=O)=O)CC2)c(F)c1 (mixture of isomers) [Example 92]
MC3 receptor (MC3R)
  pKi: 4.75
MC4 receptor (MC4R)
  pKi: 5.75
[1]
  microsomal CLint at 1 μM: 32.4 µL/min/mg
CYP3A4
  inhibition at 3 µM: 33.5%
MC4 receptor
  pEC50: 6.56
